Test results from PubChem BioAssay (NCI).
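48-hour exposure; five concentrations; linearly interpolated endpoints. Here, GI50 denotes the concentration required for 50% inhibition of growth. The concentration for full growth arrest is given as TGI.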

Key:
Experiment in all cases: DTP human tumour cell line panel, 48 h
HCC-2998 colon = test system: HCC-2998 colon
SNB-75 CNS = test system: SNB-75 CNS
CCRF-CEM leukemia = test system: CCRF-CEM leukemia
LXFL 529 NSCLC = test system: LXFL 529 NSCLC
NCI-H522 lung = test system: NCI-H522 lung
HCT-116 colon = test system: HCT-116 colon
UACC-62 melanoma = test system: UACC-62 melanoma
ACHN renal = test system: ACHN renal
U251 CNS = test system: U251 CNS
NCI-H23 lung = test system: NCI-H23 lung
CAKI-1 renal = test system: CAKI-1 renal
RPMI-8226 leukemia = test system: RPMI-8226 leukemia
KM20L2 colon = test system: KM20L2 colon
HOP-92 NSCLC = test system: HOP-92 NSCLC
NCI-H460 lung = test system: NCI-H460 lung
IGROV1 ovarian = test system: IGROV1 ovarian
HOP-62 NSCLC = test system: HOP-62 NSCLC
RXF 393 renal = test system: RXF 393 renal
HL-60(TB) leukemia = test system: HL-60(TB) leukemia
SF-295 CNS = test system: SF-295 CNS
TK-10 renal = test system: TK-10 renal
KM12 colon = test system: KM12 colon
SK-OV-3 ovarian = test system: SK-OV-3 ovarian
HT29 colon = test system: HT29 colon
SN12C renal = test system: SN12C renal
SNB-19 CNS = test system: SNB-19 CNS
XF 498 CNS = test system: XF 498 CNS
M14 melanoma = test system: M14 melanoma
OVCAR-3 ovarian = test system: OVCAR-3 ovarian
A549 NSCLC = test system: A549 NSCLC
DMS 273 small cell lung = test system: DMS 273 small cell lung
UO-31 renal = test system: UO-31 renal
OVCAR-4 ovarian = test system: OVCAR-4 ovarian
SK-MEL-2 melanoma = test system: SK-MEL-2 melanoma
LOX IMVI melanoma = test system: LOX IMVI melanoma
COLO 205 colon = test system: COLO 205 colon
RXF-631 renal = test system: RXF-631 renal
HCT-15 colon = test system: HCT-15 colon
DLD-1 colon = test system: DLD-1 colon
M19-MEL melanoma = test system: M19-MEL melanoma
SR leukemia = test system: SR leukemia
HOP-18 NSCLC = test system: HOP-18 NSCLC
OVCAR-8 ovarian = test system: OVCAR-8 ovarian
SF-539 CNS = test system: SF-539 CNS
786-0 renal = test system: 786-0 renal
SF-268 CNS = test system: SF-268 CNS
DMS 114 small cell lung = test system: DMS 114 small cell lung
MALME-3M melanoma = test system: MALME-3M melanoma
OVCAR-5 ovarian = test system: OVCAR-5 ovarian
SK-MEL-28 melanoma = test system: SK-MEL-28 melanoma
NCI-H226 lung = test system: NCI-H226 lung
K-562 leukemia = test system: K-562 leukemia
SK-MEL-5 melanoma = test system: SK-MEL-5 melanoma
EKVX NSCLC = test system: EKVX NSCLC
SNB-78 CNS = test system: SNB-78 CNS
SW-620 colon = test system: SW-620 colon
MOLT-4 leukemia = test system: MOLT-4 leukemia
UACC-257 melanoma = test system: UACC-257 melanoma

Which GI50 (HCC-2998 colon) does the source give for `CCC[CH2][Sn]([CH2]CCC)([S]C#N)[S]C#N` here?
The GI50 was 1.15 µM.

What about the TGI (HCC-2998 colon) of the same molecule?
The TGI was 2.39 µM.

What about the GI50 (SNB-75 CNS) of the same molecule?
The GI50 was 0.592 µM.

What about the TGI (SNB-75 CNS) of the same molecule?
Its TGI is 2.08 µM.

What about the GI50 (CCRF-CEM leukemia) of the same molecule?
Its GI50 is 0.224 µM.

What about the TGI (CCRF-CEM leukemia) of the same molecule?
The TGI was 0.869 µM.

What about the GI50 (LXFL 529 NSCLC) of the same molecule?
Its GI50 is 0.122 µM.

And the TGI (LXFL 529 NSCLC)?
Its TGI is 0.749 µM.

What about the GI50 (NCI-H522 lung) of the same molecule?
Its GI50 is 0.0451 µM.

What about the TGI (NCI-H522 lung) of the same molecule?
The TGI was 0.224 µM.

What about the GI50 (HCT-116 colon) of the same molecule?
The GI50 was 1.45 µM.

What about the TGI (HCT-116 colon) of the same molecule?
Its TGI is 3.11 µM.

What about the GI50 (UACC-62 melanoma) of the same molecule?
The GI50 was 0.58 µM.

And the TGI (UACC-62 melanoma)?
The TGI was 2 µM.

And the GI50 (ACHN renal)?
Its GI50 is 1.24 µM.

And the TGI (ACHN renal)?
Its TGI is 2.48 µM.

What about the GI50 (U251 CNS) of the same molecule?
The GI50 was 0.768 µM.

What about the TGI (U251 CNS) of the same molecule?
Its TGI is 2.04 µM.

And the GI50 (NCI-H23 lung)?
Its GI50 is 0.609 µM.

And the TGI (NCI-H23 lung)?
The TGI was 2.14 µM.

And the GI50 (CAKI-1 renal)?
The GI50 was 0.32 µM.

And the TGI (CAKI-1 renal)?
Its TGI is 1.87 µM.

And the GI50 (RPMI-8226 leukemia)?
The GI50 was 0.229 µM.

And the TGI (RPMI-8226 leukemia)?
The TGI was 1.34 µM.

What about the GI50 (KM20L2 colon) of the same molecule?
The GI50 was 1.78 µM.

And the TGI (KM20L2 colon)?
The TGI was 3.6 µM.

What about the GI50 (HOP-92 NSCLC) of the same molecule?
The GI50 was 1.79 µM.

What about the TGI (HOP-92 NSCLC) of the same molecule?
The TGI was 3.5 µM.

And the GI50 (NCI-H460 lung)?
The GI50 was 2.14 µM.

What about the TGI (NCI-H460 lung) of the same molecule?
The TGI was 4.96 µM.

And the GI50 (IGROV1 ovarian)?
Its GI50 is 1.27 µM.

What about the TGI (IGROV1 ovarian) of the same molecule?
Its TGI is 2.78 µM.

What about the GI50 (HOP-62 NSCLC) of the same molecule?
Its GI50 is 1.98 µM.

What about the TGI (HOP-62 NSCLC) of the same molecule?
Its TGI is 3.58 µM.

And the GI50 (RXF 393 renal)?
Its GI50 is 0.342 µM.

What about the TGI (RXF 393 renal) of the same molecule?
Its TGI is 1.33 µM.

What about the GI50 (HL-60(TB) leukemia) of the same molecule?
Its GI50 is 0.389 µM.

And the TGI (HL-60(TB) leukemia)?
The TGI was 1.45 µM.

What about the GI50 (SF-295 CNS) of the same molecule?
The GI50 was 1.53 µM.

And the TGI (SF-295 CNS)?
The TGI was 2.94 µM.

And the GI50 (TK-10 renal)?
Its GI50 is 1.11 µM.

And the TGI (TK-10 renal)?
The TGI was 2.4 µM.

And the GI50 (KM12 colon)?
The GI50 was 1.45 µM.

And the TGI (KM12 colon)?
The TGI was 3.11 µM.

What about the GI50 (SK-OV-3 ovarian) of the same molecule?
Its GI50 is 1.77 µM.

What about the TGI (SK-OV-3 ovarian) of the same molecule?
The TGI was 3.39 µM.

And the GI50 (HT29 colon)?
Its GI50 is 2.77 µM.

And the TGI (HT29 colon)?
The TGI was 8.51 µM.

What about the GI50 (SN12C renal) of the same molecule?
The GI50 was 1.18 µM.

What about the TGI (SN12C renal) of the same molecule?
The TGI was 2.52 µM.

What about the GI50 (SNB-19 CNS) of the same molecule?
Its GI50 is 1.12 µM.

What about the TGI (SNB-19 CNS) of the same molecule?
Its TGI is 2.36 µM.

And the GI50 (XF 498 CNS)?
The GI50 was 0.779 µM.

What about the TGI (XF 498 CNS) of the same molecule?
Its TGI is 1.98 µM.

What about the GI50 (M14 melanoma) of the same molecule?
Its GI50 is 1.49 µM.

And the TGI (M14 melanoma)?
The TGI was 3.48 µM.

What about the GI50 (OVCAR-3 ovarian) of the same molecule?
Its GI50 is 1.4 µM.

What about the TGI (OVCAR-3 ovarian) of the same molecule?
Its TGI is 2.7 µM.

And the GI50 (A549 NSCLC)?
The GI50 was 3.78 µM.

What about the TGI (A549 NSCLC) of the same molecule?
The TGI was 11.9 µM.

And the GI50 (DMS 273 small cell lung)?
Its GI50 is 1.63 µM.

What about the TGI (DMS 273 small cell lung) of the same molecule?
Its TGI is 4.21 µM.

And the GI50 (UO-31 renal)?
Its GI50 is 1.61 µM.

And the TGI (UO-31 renal)?
The TGI was 2.98 µM.

What about the GI50 (OVCAR-4 ovarian) of the same molecule?
The GI50 was 1.34 µM.

And the TGI (OVCAR-4 ovarian)?
The TGI was 2.74 µM.

What about the GI50 (SK-MEL-2 melanoma) of the same molecule?
The GI50 was 0.457 µM.

And the TGI (SK-MEL-2 melanoma)?
The TGI was 1.68 µM.

What about the GI50 (LOX IMVI melanoma) of the same molecule?
The GI50 was 0.85 µM.

What about the TGI (LOX IMVI melanoma) of the same molecule?
The TGI was 2.47 µM.

What about the GI50 (COLO 205 colon) of the same molecule?
Its GI50 is 1.4 µM.

And the TGI (COLO 205 colon)?
Its TGI is 3.77 µM.

And the GI50 (RXF-631 renal)?
Its GI50 is 0.329 µM.

And the TGI (RXF-631 renal)?
Its TGI is 1.43 µM.

What about the GI50 (HCT-15 colon) of the same molecule?
Its GI50 is 1.18 µM.

What about the TGI (HCT-15 colon) of the same molecule?
Its TGI is 2.53 µM.

And the GI50 (DLD-1 colon)?
The GI50 was 0.999 µM.

And the TGI (DLD-1 colon)?
The TGI was 2.23 µM.

What about the GI50 (M19-MEL melanoma) of the same molecule?
The GI50 was 0.909 µM.

What about the TGI (M19-MEL melanoma) of the same molecule?
The TGI was 5.04 µM.

What about the GI50 (SR leukemia) of the same molecule?
The GI50 was 0.36 µM.

What about the TGI (SR leukemia) of the same molecule?
The TGI was 2.54 µM.

And the GI50 (HOP-18 NSCLC)?
The GI50 was 1.21 µM.

And the TGI (HOP-18 NSCLC)?
The TGI was 2.44 µM.

What about the GI50 (OVCAR-8 ovarian) of the same molecule?
Its GI50 is 1.53 µM.

And the TGI (OVCAR-8 ovarian)?
The TGI was 3.54 µM.

And the GI50 (SF-539 CNS)?
Its GI50 is 1.24 µM.

What about the TGI (SF-539 CNS) of the same molecule?
Its TGI is 2.55 µM.

And the GI50 (786-0 renal)?
Its GI50 is 1.2 µM.

What about the TGI (786-0 renal) of the same molecule?
The TGI was 2.49 µM.

And the GI50 (SF-268 CNS)?
Its GI50 is 0.802 µM.

And the TGI (SF-268 CNS)?
Its TGI is 2.26 µM.

What about the GI50 (DMS 114 small cell lung) of the same molecule?
Its GI50 is 0.506 µM.

What about the TGI (DMS 114 small cell lung) of the same molecule?
Its TGI is 2.68 µM.

What about the GI50 (MALME-3M melanoma) of the same molecule?
The GI50 was 0.753 µM.

And the TGI (MALME-3M melanoma)?
The TGI was 2.27 µM.

And the GI50 (OVCAR-5 ovarian)?
Its GI50 is 1.56 µM.

And the TGI (OVCAR-5 ovarian)?
The TGI was 2.96 µM.

And the GI50 (SK-MEL-28 melanoma)?
The GI50 was 0.753 µM.

And the TGI (SK-MEL-28 melanoma)?
Its TGI is 2.15 µM.

What about the GI50 (NCI-H226 lung) of the same molecule?
Its GI50 is 1.77 µM.

And the TGI (NCI-H226 lung)?
Its TGI is 3.25 µM.

And the GI50 (K-562 leukemia)?
Its GI50 is 0.215 µM.

And the TGI (K-562 leukemia)?
Its TGI is 1.35 µM.

And the GI50 (SK-MEL-5 melanoma)?
The GI50 was 0.483 µM.

What about the TGI (SK-MEL-5 melanoma) of the same molecule?
Its TGI is 1.76 µM.

And the GI50 (EKVX NSCLC)?
Its GI50 is 1.36 µM.

And the TGI (EKVX NSCLC)?
Its TGI is 2.99 µM.

What about the GI50 (SNB-78 CNS) of the same molecule?
The GI50 was 0.663 µM.

And the TGI (SNB-78 CNS)?
The TGI was 2.51 µM.

What about the GI50 (SW-620 colon) of the same molecule?
The GI50 was 0.378 µM.

What about the TGI (SW-620 colon) of the same molecule?
The TGI was 1.54 µM.

What about the GI50 (MOLT-4 leukemia) of the same molecule?
The GI50 was 0.462 µM.

What about the TGI (MOLT-4 leukemia) of the same molecule?
The TGI was 3.23 µM.

And the GI50 (UACC-257 melanoma)?
Its GI50 is 0.965 µM.

What about the TGI (UACC-257 melanoma) of the same molecule?
The TGI was 2.4 µM.
